Reference: PubChem BioAssay (NCI)
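Results reflect a 48-hour exposure of cells in 96-well plates to compound at five concentrations. GI50 marks 50% less growth. TGI: total growth inhibition.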

Tests used:
Test in all cases: NCI-60 cell line screen, 48 h
SK-OV-3 ovarian = test system: SK-OV-3 ovarian
IGROV1 ovarian = test system: IGROV1 ovarian
MCF7 breast = test system: MCF7 breast
COLO 205 colon = test system: COLO 205 colon
T-47D breast = test system: T-47D breast
MDA-MB-435 = test system: MDA-MB-435
OVCAR-8 ovarian = test system: OVCAR-8 ovarian
HCT-15 colon = test system: HCT-15 colon
M14 melanoma = test system: M14 melanoma
HT29 colon = test system: HT29 colon
HCC-2998 colon = test system: HCC-2998 colon
CAKI-1 renal = test system: CAKI-1 renal
PC-3 prostate = test system: PC-3 prostate
UACC-257 melanoma = test system: UACC-257 melanoma
KM12 colon = test system: KM12 colon
HOP-92 NSCLC = test system: HOP-92 NSCLC
UACC-62 melanoma = test system: UACC-62 melanoma
NCI-H226 lung = test system: NCI-H226 lung
CCRF-CEM leukemia = test system: CCRF-CEM leukemia
SNB-19 CNS = test system: SNB-19 CNS
U251 CNS = test system: U251 CNS
HCT-116 colon = test system: HCT-116 colon
SF-268 CNS = test system: SF-268 CNS
SNB-75 CNS = test system: SNB-75 CNS
SN12C renal = test system: SN12C renal
SR leukemia = test system: SR leukemia
NCI-H23 lung = test system: NCI-H23 lung
RXF 393 renal = test system: RXF 393 renal
UO-31 renal = test system: UO-31 renal
MOLT-4 leukemia = test system: MOLT-4 leukemia
BT-549 breast = test system: BT-549 breast
SF-295 CNS = test system: SF-295 CNS
786-0 renal = test system: 786-0 renal
SF-539 CNS = test system: SF-539 CNS
DU-145 prostate = test system: DU-145 prostate
MDA-MB-231 breast = test system: MDA-MB-231 breast
ACHN renal = test system: ACHN renal
HOP-62 NSCLC = test system: HOP-62 NSCLC
RPMI-8226 leukemia = test system: RPMI-8226 leukemia
NCI-H460 lung = test system: NCI-H460 lung
SW-620 colon = test system: SW-620 colon
MALME-3M melanoma = test system: MALME-3M melanoma
OVCAR-3 ovarian = test system: OVCAR-3 ovarian
HL-60(TB) leukemia = test system: HL-60(TB) leukemia
NCI-H522 lung = test system: NCI-H522 lung
OVCAR-5 ovarian = test system: OVCAR-5 ovarian
NCI/ADR-RES ovarian = test system: NCI/ADR-RES ovarian
A549 NSCLC = test system: A549 NSCLC
LOX IMVI melanoma = test system: LOX IMVI melanoma
A498 renal = test system: A498 renal
SK-MEL-5 melanoma = test system: SK-MEL-5 melanoma
TK-10 renal = test system: TK-10 renal
SK-MEL-2 melanoma = test system: SK-MEL-2 melanoma
OVCAR-4 ovarian = test system: OVCAR-4 ovarian
EKVX NSCLC = test system: EKVX NSCLC
K-562 leukemia = test system: K-562 leukemia
HS 578T breast = test system: HS 578T breast

## Clc1ccc(CNc2ccc3nc(CCC4CCCCC4)[nH]c3c2)cc1
SK-OV-3 ovarian
  GI50: 2.32 µM
  TGI: 5.95 µM
IGROV1 ovarian
  GI50: 3 µM
  TGI: 36.9 µM
MCF7 breast
  GI50: 1.8 µM
  TGI: 4.63 µM
COLO 205 colon
  GI50: 1.93 µM
  TGI: 3.73 µM
T-47D breast
  GI50: 2.24 µM
  TGI: 6.55 µM
MDA-MB-435
  GI50: 1.88 µM
  TGI: 4.1 µM
OVCAR-8 ovarian
  GI50: 3.18 µM
  TGI: 19.9 µM
HCT-15 colon
  GI50: 1.83 µM
  TGI: 5.64 µM
M14 melanoma
  GI50: 1.93 µM
  TGI: 3.95 µM
HT29 colon
  GI50: 1.9 µM
  TGI: 4.66 µM
HCC-2998 colon
  GI50: 1.81 µM
  TGI: 3.41 µM
CAKI-1 renal
  GI50: 2.46 µM
  TGI: 6.53 µM
PC-3 prostate
  GI50: 2.66 µM
  TGI: 10.9 µM
UACC-257 melanoma
  GI50: 2.3 µM
  TGI: 6.3 µM
KM12 colon
  GI50: 2.49 µM
  TGI: 7 µM
HOP-92 NSCLC
  GI50: 1.47 µM
  TGI: 3.8 µM
UACC-62 melanoma
  GI50: 1.76 µM
  TGI: 3.41 µM
NCI-H226 lung
  GI50: 1.76 µM
  TGI: 4.16 µM
CCRF-CEM leukemia
  GI50: 3.27 µM
  TGI: > 100 µM
SNB-19 CNS
  GI50: 3.12 µM
  TGI: 14.8 µM
U251 CNS
  GI50: 1.73 µM
  TGI: 3.47 µM
HCT-116 colon
  GI50: 1.93 µM
  TGI: 4.96 µM
SF-268 CNS
  GI50: 3.13 µM
  TGI: 29.9 µM
SNB-75 CNS
  GI50: 1.91 µM
  TGI: 5.81 µM
SN12C renal
  GI50: 2.76 µM
  TGI: 11.5 µM
SR leukemia
  GI50: 3.15 µM
  TGI: 9.92 µM
NCI-H23 lung
  GI50: 2.07 µM
  TGI: 4.94 µM
RXF 393 renal
  GI50: 1.97 µM
  TGI: 4.95 µM
UO-31 renal
  GI50: 1.49 µM
  TGI: 3.29 µM
MOLT-4 leukemia
  GI50: 2.52 µM
  TGI: 8.23 µM
BT-549 breast
  GI50: 2.14 µM
  TGI: 7.24 µM
SF-295 CNS
  GI50: 1.96 µM
  TGI: 4.07 µM
786-0 renal
  GI50: 2.03 µM
  TGI: 4.4 µM
SF-539 CNS
  GI50: 2.14 µM
  TGI: 4.83 µM
DU-145 prostate
  GI50: 3.7 µM
  TGI: 23.2 µM
MDA-MB-231 breast
  GI50: 1.64 µM
  TGI: 3.18 µM
ACHN renal
  GI50: 3.03 µM
  TGI: 11.2 µM
HOP-62 NSCLC
  GI50: 2.01 µM
  TGI: 4.16 µM
RPMI-8226 leukemia
  GI50: 2.09 µM
  TGI: 5.02 µM
NCI-H460 lung
  GI50: 2.15 µM
  TGI: 4.82 µM
SW-620 colon
  GI50: 1.78 µM
  TGI: 3.7 µM
MALME-3M melanoma
  GI50: 1.77 µM
  TGI: 4.08 µM
OVCAR-3 ovarian
  GI50: 3.02 µM
  TGI: 12.2 µM
HL-60(TB) leukemia
  GI50: 2.03 µM
  TGI: 4.7 µM
NCI-H522 lung
  GI50: 1.71 µM
  TGI: 3.95 µM
OVCAR-5 ovarian
  GI50: 2.39 µM
  TGI: 6.68 µM
NCI/ADR-RES ovarian
  GI50: 2.5 µM
  TGI: 7.97 µM
A549 NSCLC
  GI50: 3.14 µM
  TGI: > 100 µM
LOX IMVI melanoma
  GI50: 1.7 µM
  TGI: 3.1 µM
A498 renal
  GI50: 1.36 µM
  TGI: 3.4 µM
SK-MEL-5 melanoma
  GI50: 1.69 µM
  TGI: 3.09 µM
TK-10 renal
  GI50: 2.61 µM
  TGI: 7.87 µM
SK-MEL-2 melanoma
  GI50: 2.24 µM
  TGI: 5.12 µM
OVCAR-4 ovarian
  GI50: 3.5 µM
  TGI: 90.7 µM
EKVX NSCLC
  GI50: 2.2 µM
  TGI: 7.06 µM
K-562 leukemia
  GI50: 2.09 µM
  TGI: 5.02 µM
HS 578T breast
  GI50: 2.12 µM
  TGI: 6.37 µM
